Source: patent EP1614683B1, “Indazole compounds and pharmaceutical compositions for inhibiting protein kinases, and methods for their use” (priority 1999, dated 2001)
Read-outs that look alike come from different tables or passages of the source.

Legend:
[1] = tested on: human umbilical vein endothelial cells (HUVEC); test: HUVEC proliferation assay (VEGF-stimulated, MTT); type: cell-based; conditions: Homo sapiens, HUVEC, Table 1
[2] = target: unphosphorylated VEGF-R2Δ50 (Homo sapiens, UniProt P35968, DEL940-989/E990V); test: biochemical; conditions: for inhibition at 0.05 µM: read-out: FLVK ** (% inhibition); for inhibition at 1 µM: read-out: FLVK ** (% inhibition, cell marked *)
Sequence of unphosphorylated VEGF-R2Δ50 (P35968 with tags, fused parts or gaps DEL940-989/E990V limits assumed): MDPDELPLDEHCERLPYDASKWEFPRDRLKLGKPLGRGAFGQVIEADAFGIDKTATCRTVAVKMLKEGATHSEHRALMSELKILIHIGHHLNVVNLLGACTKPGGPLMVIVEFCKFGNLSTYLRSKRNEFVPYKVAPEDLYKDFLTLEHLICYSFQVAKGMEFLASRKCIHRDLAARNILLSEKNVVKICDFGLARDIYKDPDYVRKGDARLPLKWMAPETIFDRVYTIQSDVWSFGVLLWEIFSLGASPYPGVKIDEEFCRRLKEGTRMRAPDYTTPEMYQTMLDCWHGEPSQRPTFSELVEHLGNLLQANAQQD

LCK tyrosine kinase = LCK tyrosine kinase (Homo sapiens, UniProt P06239, C224D/P223M); test: LCK spectrophotometric assay; type: biochemical; conditions: Table 1; compound concentration 1 µM; read-out: Lck-P* (% inhibition)
Sequence of LCK tyrosine kinase (P06239 223-509 P223M/C224D): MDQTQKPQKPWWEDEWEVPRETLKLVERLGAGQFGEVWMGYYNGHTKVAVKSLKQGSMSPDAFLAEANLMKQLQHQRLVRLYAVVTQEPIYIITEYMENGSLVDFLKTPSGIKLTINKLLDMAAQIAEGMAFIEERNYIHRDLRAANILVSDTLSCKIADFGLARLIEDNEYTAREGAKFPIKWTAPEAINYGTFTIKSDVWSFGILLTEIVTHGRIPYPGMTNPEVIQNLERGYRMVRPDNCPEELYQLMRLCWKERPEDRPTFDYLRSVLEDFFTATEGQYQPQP
Protocol: The spectrophotometric assay was carried out as described above for VEGF-R2, except for the following changes in concentration: LCK = 60 nM, MgCl2 = 0 mM, poly(E4Y1) = 20 mM.

in vitro = in vitro ADME, human; conditions: 2 h; for remaining at 2 h, 5 µM: read-out: % remain (HLM, 2 h)
Protocol: Compound metabolism in human liver microsomes was measured by LC-MS analytical assay procedures as follows. First, human liver microsomes (HLM) were thawed and diluted to 5 mg/mL with cold 100 mM potassium phosphate (KPO4) buffer. Appropriate amounts of KPO4 buffer, NADPH-regenerating solution (containing B-NADP, glucose-6-phosphate, glucose-6-phosphate dehydrogenase, and MgCl2), and HLM were preincubated in 13 x 100 mm glass tubes at 37 C for 10 min. (3 tubes per test compound--triplicate). Test compound (5 µM final) was added to each tube to initiate reaction and was mixed by gentle vortexing, followed by incubation at 37 °C. At t=0, 2 h, a 250-µL sample was removed from each incubation tube to separate 12 x 75 mm glass tubes containing 1 mL ice-cold acetonitrile with 0.05 µM reserpine. […] Supernatant was transferred to new 12 x 75 mm glass tubes and evaporated by Speed-Vac centrifugal vacuum evaporator. Samples were reconstituted in 200 µL 0.1 % formic acid/acetonitrile (90/10) and vortexed vigorously to dissolve. The samples were then transferred to separate polypropylene microcentrifuge tubes and centrifuged at 14000 x g for 10 min. (Fisher Micro 14, S/N M0017580). For each replicate (#1-3) at each timepoint (0 and 2 h), an aliquot sample of each test compound was combined into a single HPLC vial insert (6 total samples) for LC-MS analysis, which is described below.

human FGF-R1 = human FGF-R1 (Homo sapiens, UniProt P11362, C488A/C584S/L457V); test: FGF-R spectrophotometric assay; type: biochemical; conditions: Table 1; compound concentration 1 µM; read-out: FGF-P* (% inhibition)
Sequence of human FGF-R1 (P11362 456-766 L457V/C488A/C584S): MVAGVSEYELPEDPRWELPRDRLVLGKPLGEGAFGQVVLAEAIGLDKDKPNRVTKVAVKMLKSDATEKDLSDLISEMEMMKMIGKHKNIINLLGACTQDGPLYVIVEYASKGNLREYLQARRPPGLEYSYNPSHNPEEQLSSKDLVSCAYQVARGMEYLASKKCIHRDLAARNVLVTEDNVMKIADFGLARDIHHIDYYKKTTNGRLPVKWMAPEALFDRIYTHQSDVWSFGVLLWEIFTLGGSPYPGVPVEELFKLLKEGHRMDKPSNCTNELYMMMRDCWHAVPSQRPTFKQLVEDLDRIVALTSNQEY
Protocol: The spectrophotometric assay was carried out as described above for VEGF-R2, except for the following changes in concentration: FGF-R = 50 nM, ATP = 2 mM, and poly(E4Y1) =15 mM.

[3] = + albumin, read-out: HUVEC + albumin IC50
[4] = human liver microsomes, 5 µM test compound, 37 °C

Row | Compound | IC50 [1, 3] [nM] | IC50 ([1]; read-out: HUVEC IC50) [nM] | inhibition at 0.05 µM [2] [%] | inhibition at 1 µM (LCK tyrosine kinase) [%] | remaining at 2 h, 5 µM (in vitro; [4]) [%] | inhibition at 1 µM (human FGF-R1) [%] | Ki ([2]; FLVK ** (Ki), Table 1) [nM] | % remain (HLM, 2 h) (in vitro; human, microsomes, 5 µM) [%] | % remain (HLM, 2 h) (in vitro; [4]) [%] | inhibition at 1 µM [2] [%]
1 | C[C@@H]1C[C@H]1C(=O)Nc1cccc(C(=O)c2ccc3c(/C=C/c4ccccn4)n[nH]c3c2)c1 (racemic) [Reference Example 41(h), 6-[3-((2-RS-trans-methylcyclopropyl)carboxamido)benzoyl]-3-E-[2-(pyridin-2-yl)ethenyl]-1H-indazole] | 25 | 2 | 90 | 30 | 8 | – | – | – | – | –
2 | O=C(Cc1ccccn1)Nc1cccc(C(=O)c2ccc3c(/C=C/c4ccccc4)n[nH]c3c2)c1 [19(g), 6-[3-(pyridin-2-ylacetamido)benzoyl]-3-E-styryl-1H-indazole] | 1920 | 18 | – | 19 | 90 | 59 | 0.86 | – | – | –
3 | Cc1cc(C(=O)Nc2cc(C(=O)c3ccc4c(/C=C/c5ccccn5)n[nH]c4c3)c(C)cc2C)n(C)n1 [41(min)] | 14.4 | 1.3 | 93 | 6 | – | 46 | – | 94 | – | –
4 | COc1cccc(CNC(=O)c2ccccc2Sc2ccc3c(/C=C/c4ccccn4)n[nH]c3c2)c1 [Reference Example 35(aa)] | 5 | – | 99 | – | – | – | – | – | 15 | –
5 | O=C(NCc1ccco1)c1ccccc1Sc1ccc2c(/C=C/c3ccccn3)n[nH]c2c1 [Reference Example 35(bb), 6-[2-((fur-2-yl)methylcarbamoyl)phenylsulfanyl]-3-E-[2-(pyridin-2-yl)ethenyl]-1H-indazole] | 4.1 | – | 87 | – | – | – | – | – | 8 | –
6 | Cn1cccc1C(=O)NNC(=O)c1ccccc1Sc1ccc2c(/C=C/c3ccccn3)n[nH]c2c1 [Reference Example 35(e), 6-[2-((1-methylpyrrol-2-ylhydrazido)carbonyl)phenylsulfanyl]-3-E-[2-(pyridin-2-yl)ethenyl)-1H-indazole] | 4.8 | – | 99 | 56 | – | 69 | – | – | 34 | –
7 | C=C(C)CNC(=O)c1ccccc1Sc1ccc2c(/C=C/c3ccccn3)n[nH]c2c1 [Reference Example 35(ee), 6-[2-(2-Methyl-2-propenylcarbamoyl)phenylsulfanyl]-3-E-[2-(pyridin-2-yl)ethenyl]-1H-indazole] | 3 | – | 82 | – | – | – | – | – | 13 | –
8 | O=C(NCc1ccccc1F)c1ccccc1Sc1ccc2c(/C=C/c3ccccn3)n[nH]c2c1 [Reference Example 35(f)] | – | – | 100 | – | – | – | – | – | 15 | –
9 | COc1ccc(CNC(=O)c2ccccc2Sc2ccc3c(/C=C/c4ccccn4)n[nH]c3c2)cc1 [Reference Example 35(g)] | ~15 | – | 100 | – | – | – | – | – | 53 | –
10 | Cc1ccc(CNC(=O)c2ccccc2Sc2ccc3c(/C=C/c4ccccn4)n[nH]c3c2)o1 [Reference Example 35(h), 6-[2-((5-Methylfur-2-yl)methylcarbamoyl)phenylsulfanyl)-3-E-[2-(pyridin-2-yl)ethenyl]-1H-indazole] | 3.6 | – | 100 | – | – | – | – | – | 9 | –
11 | O=C(NOCC1CC1)c1ccccc1Sc1ccc2c(/C=C/c3ccccn3)n[nH]c2c1 [Reference Example 35(s), 6-[2-((Cyclopropyl)methoxycarbamoyl)phenylsulfanyl]-3-E-[2-(pyridin-2-yl)ethenyl]-1H-indazole] | 4.6 | – | – | 18 | 16 | 64 | – | – | – | 60
12 | CCCONC(=O)c1ccccc1Sc1ccc2c(/C=C/c3ccccn3)n[nH]c2c1 [Reference Example 35(t), 6-[2-(n-Propoxycarbamoyl)phenylsulfanyl]-3-E-[2-(pyridin-2-yl)ethenyl]-1H-indazole] | 4 | – | – | 12 | – | 63 | – | – | 7 | 59
13 | C=CCNC(=O)c1ccccc1Sc1ccc2c(/C=C/c3ccccn3)n[nH]c2c1 [Reference Example 35(u), 6-[2-(Allylcarbamoyl)phenylsulfanyl]-3-E-[2-(pyridin-2-yl)ethenyl]-1H-indazole] | 2.8 | – | 79 | – | – | – | – | – | 27 | –
14 | CCNC(=O)c1ccccc1Sc1ccc2c(/C=C/c3ccccn3)n[nH]c2c1 [Reference Example 35(x), 6-[2-(Ethylcarbamoyl)phenylsulfanyl]-3-E-[2-(pyridin-2-yl)ethenyl]-1H-indazole] | 2 | – | 75 | – | – | – | – | – | 37 | –
15 | O=C(Nc1nccs1)c1ccccc1Sc1ccc2c(/C=C/c3ccccn3)n[nH]c2c1 [Reference Example 35(y), 6-[2-(Thiazol-2-ylcarbamoyl)phenylsulfanyl]-3-E-[2-(pyridin-2-yl)ethenyl]-1H-indazole] | 1 to 3 | – | 99 | 29 | – | 82 | – | – | 7 | –
16 | CCOCCNC(=O)c1ccccc1Sc1ccc2c(/C=C/c3ccccn3)n[nH]c2c1 [Reference Example 35(z), 6-[2-(2-(Ethoxy)ethylcarbamoyl)phenylsulfanyl]-3-E-[2-(pyridin-2-yl)ethenyl]-1H-indazole] | 7.1 | – | 95 | – | – | – | – | – | 2 | –
17 | C=CCn1nc(C)cc1C(=O)Nc1cc(C(=O)c2ccc3c(/C=C/c4ccccn4)n[nH]c3c2)ccc1C [Reference Example 41(ff), 6-[3-((1-Allyl-3-methyl-1H-pyrazol-5-yl)carboxamido)-4-methylbenzoyl]-3-E-[2-(pyridin-2-yl)ethenyl]-1H-indazole] | 5.6 | – | 98 | 15 | – | – | – | – | 68 | –
18 | Cc1cc(C(=O)Nc2cc(C(=O)c3ccc4c(/C=C/c5ccccn5)n[nH]c4c3)ccc2C)n(C)n1 [Reference Example 41(hh), 6-[3-((1,3-Dimethyl-1H-pyrazol-5-yl)carboxamido)-4-methylbenzoyl]-3-E-[2-(pyridin-2-yl)ethenyl]-1H-indazole] | 3.9 | – | 98 | 13 | – | 74 | – | – | – | –
19 | CCc1cc(C(=O)Nc2cc(C(=O)c3ccc4c(/C=C/c5ccccn5)n[nH]c4c3)ccc2C)n(C)n1 [Reference Example 41(jj), 6-[3-((3-Ethyl-1-methyl-1H-pyrazol-5-yl)carboxamido)-4. methylbenzoyl]-3-E-[2-(pyridin-2-yl)ethenyl]-1H-indazole] | 21 | – | 87 | 19 | – | 81 | – | – | – | –
20 | CCc1cc(C(=O)Nc2cccc(C(=O)c3ccc4c(/C=C/c5ccccn5)n[nH]c4c3)c2)n(C)n1 [Reference Example 41(v), 6-[3-((3-Ethyl-1-methyl-1H-pyrazol-5-yl)carboxamido)benzoyl]-3-E-[2-(pyridin-2-yl)ethenyl)-1H-indazole] | 12 | – | – | 52 | – | 68 | – | – | – | 68
21 | O=C(Nc1cccc(C(=O)c2ccc3c(/C=C/c4ccccn4)n[nH]c3c2)c1)c1ccnc(Cl)c1 [Reference Example 41(w), 6-[3-((2-chloropyridin-4-yl)carboxamido)benzoyl]-3-E-[2-(pyridin-2-yl)ethenyl]-1H-indazole] | ~10 | – | 97 | 49 | – | 67 | – | – | – | –
22 | CC(C)COC(=O)Nc1cccc(C(=O)c2ccc3c(/C=C/c4ccccn4)n[nH]c3c2)c1 [Reference Example 41(y)] | 30 to 100 | – | 98 | 61 | – | 86 | – | – | – | –
23 | O=C(c1cccc(NC(=O)c2cc(Cl)ccn2)c1)c1ccc2c(/C=C/c3ccccn3)n[nH]c2c1 [Reference Example 41(z), 6-[3-((4-chloropyridin-2-yl)carboxamido)benzoyl]-3-E-[2-(pyridin-2-yl)ethenyl]-1H-indazole] | 7.5 | – | 100 | 54 | – | 74 | – | – | – | –
